Experimental data: patent US12324841B2, “Methods of treating cancer with a combination of an anti-PD-1 antibody and an anti-tissue factor antibody-drug conjugate” (GENMAB A/S, priority 2018, dated 2025)
“Also recorded” adds a separate entry of the source. Non-standard residues stand in square brackets, D forms with d. Residues, ends and D or L forms follow the SMILES beside them. *: point of attachment. Dolaproine = CO[C@@H]([C@@H]1CCCN1)[C@@H](C)C(=O)O; Dil = CC[C@H](C)[C@H](NC)[C@@H](CC(=O)O)OC; X1 = C[C@@H](N*)[C@@H](O)c1ccccc1; NMeV = CN[C@H](C(=O)O)C(C)C

Columns and labels:
HeLa cells [1] = assay: ATP and HMGB1 secretion from HeLa cells treated with MMAE; assay type: cell-based; conditions: 100 nM MMAE, over 24 hours, vs untreated HeLa cells
Excerpt: Induction of ICD is also characterized by the secretion of ATP and HMGB1. Extracellular ATP serves as a strong chemotactic signal, promoting immune cell migration to the tumor site. Upon arrival, extracellular HMGB1 signals through various pro-inflammatory receptors (TLR2, TLR4, RAGE) to activate antigen-presenting cells, thereby promoting immune activity within the tumor.

[2] = system: Tissue Factor positive cell lines; assay: Cell death and release of ATP and HMGB1 from Tissue Factor positive cell lines; assay type: cell-based
Excerpt: Auristatin ADC payloads disrupt the microtubule networks resulting in altered ER localization and function, which ultimately results in ER stress.

HeLa cells [3] = assay: Western blot analysis of ER stress in HeLa cells treated with MMAE; assay type: cell-based; conditions: 100 nM MMAE for 16 hours
Experimental: HeLa cells, a cervical cancer cell line, were cultured in Minimum Essential Medium (MEM) with 10% FBS, 10 mM HEPES, 1 mM sodium pyruvate, 2 mM L-glutamine, penicillin (100U/ml), and streptomycin (100 μg/ml). HeLa cells were treated with 100 nM MMAE for 16 hours and harvested in radioimmunoprecipitation assay buffer (RIPA) buffer for western blot analysis. […] Severe ER stress is a prerequisite to the exposure of pro-phagocytic signals on the surface of tumor cells, and can be indicated by activation of JNK signaling by phosphorylated IRE1.

[4] = system: HPAFII (pancreatic carcinoma); assay: Western blot analysis of ER stress induction in HPAFII cells; assay type: cell-based; conditions: 18 hours (legend: 16 hours)
Experimental: (§1) Induction of cell death and release of ICD danger signals occurs concomitant with initiation of an ER stress response. Two Tissue Factor positive cell lines, HPAFII (pancreatic carcinoma) and MDA-MB-231 (breast cell carcinoma) were exposed to tisotumab vedotin ADC, an Isotype-MMAE ADC (H00-MMAE, IgG1 MMAE), or free MMAE for 18 hours and induction of ER stress monitored by western blot analysis. Phosphorylation of inositol-requiring transmembrane kinase/endonuclease 1 (IRE1) was detected after treatment with tisotumab vedotin ADC or MMAE free drug (FIG. 6). […] The ability for auristatins to prime the immune system to recognize tumor antigens opens the door for a myriad of combinatorial therapeutic options.

[5] = system: MDA-MB-231 (breast cell carcinoma); assay: Western blot analysis of ER stress induction in MDA-MB-231 cells; assay type: cell-based; conditions: MDA-MB-231, 18 hours (legend: 16 hours)
Experimental: as §1

HeLa cells [6] = assay: Imaging of RFP-labeled tubulin and ER-binding dye in HeLa cells treated with MMAE; assay type: cell-based; conditions: 100 nM MMAE
Experimental: Treatment of HeLa cells with MMAE led to disassembly of the microtubule network and subsequent ER mislocalization. HeLa cells were transduced with a baculovirus encoding RFP-labeled Tubulin (CellLight Tubulin-RFP, ThermoFisher Scientific) and an ER-binding dye (ER-ID Green, Enzo Life Sciences). Cells were treated with 100 nM MMAE and imaged over time in the present of MMAE. Within 2 hours, fragmentation and disassembly of the microtubule network became evident, concurrent with the breakdown of the perinuclear organized ER lattice (FIGS. 2A and 2B). The condensed and mislocalized ER skeleton indicated severe ER stress within 8 hours.

[7] = system: CD14+ monocyte/macrophages; assay: Monocyte/macrophage activation in PBMCs fed killed MDA-MB-231 cells; assay type: cell-based, human
Excerpt: FIGS. 7A and 7B is a series of graphs in which Tissue Factor positive MDA-MB-231 cells killed with various agents were fed to human peripheral blood mononuclear cells (PBMCs) and immune activation assessed by increased expression of activations markers on innate CD14+ monocyte/macrophages and induction of chemokine and cytokine production.
Immunogenic cell death, as mediated by MMAE, is regulated cell death that activates adaptive immune responses against antigens from dead and dying tumor cells, and allows for the generation of robust innate immune cell activation and subsequent cytotoxic T cell responses targeted towards specific tumor cell antigens. […] Furthermore, these monocyte/macrophages conditioned by ICD-killed cells promote activation of T cells, as evidenced by production of signature inflammatory cytokines associated with cytotoxic T cell responses.

T cells = assay: T cell activation in CSFE labeled PBMCs fed killed MDA-MB-231 cells, with or without pembrolizumab; assay type: cell-based, human; conditions: 48 hours; for T cell proliferation (CSFE dilution) / production of IFNγ / production of IL12p70: without pembrolizumab
Experimental: FIG. 8A-8C is a series of graphs in which Tissue Factor positive MDA-MB-231 cells killed with various agents were fed to CSFE labeled human peripheral blood mononuclear cells (PBMCs) in the presence or absence of the PD1 targeting antibody pembrolizumab for 48 hours and T cells activation assessed by A) decreased CSFE fluorescent indicative of T cell proliferation and B) and C) cytokine production.
Induction of the innate immune response following exposure to cancer cells undergoing ICD sets up secondary T cell activation, which can be enhanced by concomitant pembrolizumab treatment.

[8] = system: murine tumor cells that stably express human TF; assay: Syngeneic tumor model: immunization with drug-killed human TF positive murine tumor cells, then tumor challenge; assay type: in vivo, Balb/c mice; conditions: mice immunized with tumor cells killed by 1-5 μg per ml tisotumab vedotin or 100 nM MMAE
Experimental: Mouse tumor cells are transfected with plasmid constructs encoding human tissue factor (TF) and sgRNA-guided Cas9 nuclease (sgRNA/Cas9) to generate a murine cell line that expresses the human TF. Fluorescence activated cell sorting (FACS) yields a clonal population of murine tumor cells that stably express human TF, these cells are then treated with 1 μg to 5 μg per ml of tisotumab vedotin or 100 nM of MMAE for 4 days. In order to prepare dying cells for immunization, treated murine tumor cells are overlaid atop Histopaque, and centrifuged at 2000 g for 30 minutes. Dead and dying cells are pelleted underneath the Histopaque layer, and viability assessed by trypan blue exclusion. A sample with approximately <20% live cells as measured by trypan blue exclusion is obtained. Flash-frozen tumor cells are prepared by submerging the cells in liquid nitrogen for 10 seconds, followed by immersion in 37° C. water until completely thawed. The liquid nitrogen freeze-thaw process is repeated 5 times. Dead and dying human TF positive tumor cells are resuspended in phosphate buffered saline (PBS) and 2×10^6 cells are injected into the peritoneum of immune-competent Balb/c mice. Seven days later, mice receive a second immunization with dead and dying cells prepared in the same manner.
Fourteen days after initial immunization with the dead and dying human TF positive tumor cells, mice are subcutaneously implanted with 5×10^6 wild-type tumor cells and monitored for tumor growth. […] As these effects occur in the absence of any administered therapeutic agent, the administration of cells killed by tisotumab vedotin or MMAE is sufficient to generate long-lasting protective immune memory against subsequent tumor cell challenge. Protective immune memory is amplified by treating these mice with tisotumab vedotin in combination with an antibody that binds to murine PD-1.

advanced cervical cancer [9] = conditions: in combination with chemotherapy; cited from earlier work
[10] = system: MDA-MB-231 cells (breast adenocarcinoma); assay: MDA-MB-231 xenograft model in humanized NSG mice; assay type: in vivo; conditions: pembrolizumab alone, first dose 10 mg/kg, then 5 mg/kg every five days, IP
Experimental: Mice were subcutaneously inoculated with 5×10^6 MDA-MB-231 cells (breast adenocarcinoma; American Tissue Culture Collection (ATCC), cat. no. HTB-26), in 100 μL phosphate-buffered saline (PBS). Before inoculation, cells were cultured in DMEM with high glucose and HEPES without L-glutamine (Lonza, cat. no. BE12-[…]), 10% (v/v) donor bovine serum with iron New Zealand Origin (Thermo Fisher Scientific, DBSI, cat. no. 10371-029), 2 mM L-glutamine (Lonza, cat. no. BE17-[…]), 1 mM Na-pyruvate (Lonza, cat. no. BE13-[…]), MEM non-essential amino acids (Life Technologies, cat. no. 11140) and 1% (v/v) penicillin/streptomycin (Lonza, cat. no. DE17-[…]), in CellSTACK culture chambers (Corning, cat. no. 3313). Tumor size was determined by caliper measurement at least two times a week and tumor volume was calculated as 0.52×length×width^2. […] The first dose of the anti-PD-1 antibody (i.e., pembrolizumab) was 10 mg/kg, followed by 5 mg/kg every five days for a maximum of six treatments. […] The IgG1 isotype control antibody is the b12 antibody which is known to bind to HIV-1 gp120. […] Mice were housed in individually ventilated (IVC) cages, five mice per cage and identified by ear tags. […] Statistical comparison of tumor burden was performed using Mann-Whitney analysis on the last day that all treatment groups were intact. Kaplan-Meier analysis was performed based on tumor volume (>500 mm^3).

advanced cervical cancer [11] = conditions: Pembrolizumab 200 mg Q3W, 82 patients; cited from earlier work
[12] = managed with interruptions of pembrolizumab, corticosteroids and/or other supportive care; cited from earlier work
[13] = compared to IgG1-MMAE ADC or tisotumab alone

CC[C@H](C)[C@@H]([C@@H](CC(=O)N1CCC[C@H]1[C@H](OC)[C@@H](C)C(=O)N[C@H](C)[C@@H](O)c1ccccc1)OC)N(C)C(=O)[C@@H](NC(=O)[C@@H](NC)C(C)C)C(C)C [MMAE, Monomethyl auristatin E, reference compound] (H-[NMeV]V[Dil][Dolaproine]-X1)
secretion of ATP (HeLa cells [1]): increased secretion of ATP and HMGB1 | secretion of HMGB1 (HeLa cells [1]): increased secretion of ATP and HMGB1 | ATP release/secretion ([2]; FIG. 5A): drove robust A) ATP secretion; also recorded: specific to tisotumab vedotin ADC and MMAE treatment | HMGB1 release/secretion ([2]; FIG. 5C): drove robust A) ATP secretion and C) HMGB1 release; also recorded: specific to tisotumab vedotin ADC and MMAE treatment | phosphorylation of IRE1 (HeLa cells [3]): led to phosphorylation of the serine threonine kinase IRE1 | phosphorylation of JNK (HeLa cells [3]): elicited severe ER stress by phosphorylation of IRE1 and JNK | ATF4 cleavage (PERK pathway) [4]: upregulation of ATF4 cleavage | phosphorylation of IRE1 [4]: detected | phosphorylation of JNK [4]: increased phosphorylation | ATF4 cleavage (PERK pathway) [5]: upregulation of ATF4 cleavage | phosphorylation of IRE1 [5]: detected | phosphorylation of JNK [5]: increased phosphorylation | time until fragmentation and disassembly of the microtubule network, with breakdown of the perinuclear ER lattice (HeLa cells [6]): ≤ 2 h | time until severe ER stress (condensed and mislocalized ER skeleton) (HeLa cells [6]): ≤ 8 h | chemotactic and inflammatory mediators from monocyte/macrophages after uptake of dead cells [7]: elicit strong chemotactic and inflammatory mediators | monocyte/macrophage activation, CD86 expression by flow cytometry [7, 13]: drove monocyte/macrophage activations | release of innate chemokines including MIP 1β [7, 13]: induced release of innate chemokines including MIP 1β | T cell proliferation (CSFE dilution) (T cells): drove T cell proliferation | production of IFNγ (T cells): production of T cell specific cytokines such as IL12P70 and IFNγ | production of IL12p70 (T cells): production of T cell specific cytokines such as IL12P70 and IFNγ | survival after challenge with wild-type tumor cells [8]: increased survival | tumor growth after challenge with wild-type tumor cells [8]: delayed tumor growth

Bevacizumab: an anti-VEGF antibody
overall survival in clinical trials (advanced cervical cancer [9]): improved overall survival

tisotumab: anti-TF antibody 011; heavy chain variable region SEQ ID NO:7, light chain variable region SEQ ID NO:8
T cell proliferation (CSFE dilution) (T cells): did not elicit these responses | production of IFNγ (T cells): did not elicit these responses | production of IL12p70 (T cells): did not elicit these responses

pembrolizumab: anti-PD-1 antibody, a checkpoint inhibitor; heavy chain SEQ ID NO:33 and light chain SEQ ID NO:34 [reference compound]
tumor burden as assessed by tumor volume [10]: hardly reduced tumor burden | objective response rate (advanced cervical cancer [11]): 12% | reversibility of immune-related AEs (irAEs) [12]: most irAEs were reversible | T cell proliferation driven by tisotumab vedotin or MMAE killed cells, effect of added pembrolizumab (T cells; 2 mg/ml of pembrolizumab): enhanced | production of IFNγ after tisotumab vedotin or MMAE killed cells, effect of added pembrolizumab (T cells; concomitant pembrolizumab): increased by concomitant pembrolizumab treatment | production of IL12p70 after tisotumab vedotin or MMAE killed cells, effect of added pembrolizumab (T cells; concomitant pembrolizumab): increased by concomitant pembrolizumab treatment
